{"source": "patent US20210078917A1", "about": "“FUNGICIDAL FERTILIZER COMPOSITION COMPRISING POTASSIUM PHOSPHITE AND GAMMA-POLY-GLUTAMIC ACID” (JIANGSU HUIFENG BIO AGRICULTURE CO., LTD., priority 2018, published 2021)", "key": {"[1]": {"system": "potatoes", "assay": "Yield increase test of potatoes (field)", "format": "in vivo, potato", "details": "amount 7000 g active ingredient/mu, base fertilizer", "description": "(§1) (1) Yield increase and disease control test of potatoes with fungicidal fertilizer composition of the present invention. This test was conducted in 2017 in Anding District, Dingxi City, Gansu Province. This area is a typical semi-arid rain-fed agricultural area. The soil type is loessial soil, with deep soil layers and uniform soil fertility. The previous crop is rape. The fertilizer of the present invention was totally applied as a base fertilizer at a time. […] Ridging after flat planting in wide and narrow rows was adopted. The wide row spacing was 60 cm, the narrow row spacing was 30 cm, the plant spacing was 30 cm, the sowing depth was 15 cm, and the plant density was 58,000 plants·hm^−2. Other field management was the same as that in large area of field. The number of large- and medium-sized potatoes ([…]) per plant was randomly determined, and the relative increase rate of large- and medium-sized potatoes was determined. The yield per mu and the relative increase rate of yield were determined. The crude starch content and increase rate of crude starch content were determined. The control effect on root rot of potatoes was also determined."}, "[2]": {"system": "root rot of potatoes", "assay": "Disease control test of potatoes (field), root rot", "format": "in vivo, potato", "details": "amount 7000 g active ingredient/mu", "description": "as §1"}, "[3]": {"system": "soybean", "assay": "Yield increase test of soybean", "format": "in vivo", "details": "4000 g effective ingredient per mu", "description": "(§2) Fertilization method: The fertilizer was co-applied with other fertilizers. The yield, quality and control effect on disease on soybean were determined."}, "[4]": {"system": "root rot, a soil-borne disease of soybeans", "assay": "Disease control test of soybean, root rot", "format": "in vivo", "details": "4000 g effective ingredient per mu", "description": "as §2"}, "[5]": {"system": "Chinese wolfberry", "assay": "Yield increase and quality test of Chinese wolfberry", "format": "in vivo, Chinese wolfberry \"Ningqi No. 7\"", "details": "1.2 kg active ingredient per mu", "description": "The test was carried out in a Chinese wolfberry planting test plot in Koluke Town, Delingha City, Qinghai Province. Chinese wolfberry plants were all three-year-old seedlings of variety “Ningqi No. 7” at a density of 270 plants/667 m^2. This experiment was designed such that different plots were arranged in order. […]. Fertilization method: It was applied together with other base fertilizers, by laying the fertilizer at the bottom of the planting pit, where the depth of the trench was 70 cm, the diameter of the pit was 80 cm, and the soil was mixed in and applied at the bottom when applying fertilizer. The yield, quality and control effect on disease on fresh Chinese wolfberry fruit were determined."}, "[6]": {"system": "Disease (black fruit)", "assay": "Disease control test of Chinese wolfberry, black fruit", "format": "in vivo, Chinese wolfberry \"Ningqi No. 7\"", "details": "1.2 kg active ingredient per mu", "description": "The test was carried out in a Chinese wolfberry planting test plot in Koluke Town, Delingha City, Qinghai Province. Chinese wolfberry plants were all three-year-old seedlings of variety “Ningqi No. 7” at a density of 270 plants/667 m^2. This experiment was designed such that different plots were arranged in order. […] Fertilization method: It was applied together with other base fertilizers, by laying the fertilizer at the bottom of the planting pit, where the depth of the trench was 70 cm, the diameter of the pit was 80 cm, and the soil was mixed in and applied at the bottom when applying fertilizer. The yield, quality and control effect on disease on fresh Chinese wolfberry fruit were determined."}, "[7]": {"system": "peanut", "assay": "Yield increase and quality test of peanut", "format": "in vivo", "details": "800 g per mu, sprayed three times during flowering and fruiting period", "description": "(§3) […]. Fertilization method: The fertilizer was applied three times by spraying during the flowering and fruiting period. The yield, quality and control effect on disease on peanut were determined."}, "[8]": {"system": "stem rot of peanut", "assay": "Disease control test of peanut, stem rot", "format": "in vivo", "details": "800 g per mu", "description": "as §3"}, "[9]": {"system": "pepper", "assay": "Yield increase and quality test of pepper", "format": "in vivo", "details": "400 g per mu, sprayed during the seedling stage", "description": "(§4) This fertilizer was applied on the basis of conventional fertilization in each treatment area. Fertilization method: The fertilizer was applied by spraying during the seedling stage of pepper. The yield, quality and control effect on disease on pepper were determined."}, "[10]": {"system": "Disease (blight)", "assay": "Disease control test of pepper, blight", "format": "in vivo", "details": "400 g per mu", "description": "as §4"}, "[11]": {"system": "tomato", "assay": "Yield increase and quality test of tomato", "format": "in vivo", "details": "600 g per mu, sprayed during the seedling stage", "description": "[…]. This fertilizer was applied on the basis of conventional fertilization in each treatment area. Fertilization method: The fertilizer was applied by spraying during the seedling stage of tomato. The yield, quality and control effect on disease on tomato were determined."}, "[12]": {"system": "Disease (rot)", "assay": "Disease control test of tomato, rot", "format": "in vivo", "details": "600 g per mu", "description": "This fertilizer was applied on the basis of conventional fertilization in each treatment area. Fertilization method: The fertilizer was applied by spraying during the seedling stage of tomato. The yield, quality and control effect on disease on tomato were determined."}}}
{"substance": "Potassium phosphite", "values": [{"measurement": "Crude starch content", "setting": "[1]", "result": 16.8, "unit": "%"}, {"measurement": "Fresh weight of large- and medium-sized potatoes", "setting": "[1]", "result": 518.8, "unit": "g/plant"}, {"measurement": "Increase rate of crude starch content", "setting": "[1]", "result": 6.3, "unit": "%"}, {"measurement": "Increase rate of large- and medium-sized potatoes", "setting": "[1]", "result": 14.8, "unit": "%"}, {"measurement": "Increase rate of yield", "setting": "[1]", "result": 12.4, "unit": "%"}, {"measurement": "Yield", "setting": "[1]", "result": 1446, "unit": "kg/mu"}, {"measurement": "Control effect", "setting": "[2]; 10 days after application", "result": 57.59, "unit": "%"}, {"measurement": "Disease index of root rot", "setting": "[2]; 10 days after application", "result": 11.56}, {"measurement": "Control effect", "setting": "[2]; 30 days after application", "result": 32.47, "unit": "%"}, {"measurement": "Disease index of root rot", "setting": "[2]; 30 days after application", "result": 26.19}, {"measurement": "Branches", "setting": "[3]", "result": 18.5, "unit": "count"}, {"measurement": "Increase rate (branches)", "setting": "[3]", "result": 6.8, "unit": "%"}, {"measurement": "Increase rate (weight per 100 grains)", "setting": "[3]", "result": 7.1, "unit": "%"}, {"measurement": "Increase rate (yield)", "setting": "[3]", "result": 11.4, "unit": "%"}, {"measurement": "Weight per 100 grains", "setting": "[3]", "result": 26.50, "unit": "g"}, {"measurement": "Yield (667 M^2)", "setting": "[3]; per 667 M^2", "result": 196.7}, {"measurement": "Control effect", "setting": "[4]; 12 days after application", "result": 75.42, "unit": "%"}, {"measurement": "Disease index of root rot", "setting": "[4]; 12 days after application", "result": 4.73}, {"measurement": "Control effect", "setting": "[4]; 35 days after application", "result": 36.78, "unit": "%"}, {"measurement": "Disease index of root rot", "setting": "[4]; 35 days after application", "result": 19.93}, {"measurement": "Quality: Polysaccharide", "setting": "[5]", "result": 8.63, "unit": "%"}, {"measurement": "Quality: Total amino acid content", "setting": "[5]", "result": 7.41, "unit": "%"}, {"measurement": "Yield of fresh Chinese wolfberry fruit: Weight per 100 fruits", "setting": "[5]", "result": 126.8, "unit": "g"}, {"measurement": "Yield of fresh Chinese wolfberry fruit: Yield", "setting": "[5]", "result": 2703.5, "unit": "kg/mu"}, {"measurement": "Disease (black fruit): Control effect", "setting": "[6]; 10 days after application", "result": 66.51, "unit": "%"}, {"measurement": "Disease (black fruit): Disease index", "setting": "[6]; 10 days after application", "result": 5.13}, {"measurement": "Disease (black fruit): Control effect", "setting": "[6]; 30 days after application", "result": 45.24, "unit": "%"}, {"measurement": "Disease (black fruit): Disease index", "setting": "[6]; 30 days after application", "result": 15.67}, {"measurement": "Quality: Linoleic acid", "setting": "[7]", "result": 44.61, "unit": "%"}, {"measurement": "Quality: Protein", "setting": "[7]", "result": 23.08, "unit": "%"}, {"measurement": "Yield", "setting": "[7]", "result": 335.7, "unit": "kg/mu"}, {"measurement": "Yield: Seed yield", "setting": "[7]", "result": 70.3, "unit": "%"}, {"measurement": "Yield: Weight per 100 fruits", "setting": "[7]", "result": 122.3, "unit": "g"}, {"measurement": "Disease (Stem rot): Control effect", "setting": "[8]; 10 days after application", "result": 78.64, "unit": "%"}, {"measurement": "Disease (Stem rot): Disease index", "setting": "[8]; 10 days after application", "result": 3.28}, {"measurement": "Disease (Stem rot): Control effect", "setting": "[8]; 30 days after application", "result": 39.36, "unit": "%"}, {"measurement": "Disease (Stem rot): Disease index", "setting": "[8]; 30 days after application", "result": 9.31}, {"measurement": "Quality: Vitamin C", "setting": "[9]", "result": 24.4, "unit": "mg/100 g"}, {"measurement": "Yield: Total yield", "setting": "[9]", "result": 3462, "unit": "kg/mu"}, {"measurement": "Yield: Weight of single fruit", "setting": "[9]", "result": 51.8, "unit": "g"}, {"measurement": "Disease (blight): Control effect", "setting": "[10]; 10 days after application", "result": 71.36, "unit": "%"}, {"measurement": "Disease (blight): Disease index", "setting": "[10]; 10 days after application", "result": 3.00}, {"measurement": "Disease (blight): Control effect", "setting": "[10]; 42 days after application", "result": 31.52, "unit": "%"}, {"measurement": "Disease (blight): Disease index", "setting": "[10]; 42 days after application", "result": 12.43}, {"measurement": "Quality: Amino acid", "setting": "[11]", "result": 695.31, "unit": "mg/100 kg"}, {"measurement": "Quality: Vitamin C", "setting": "[11]", "result": 15.69, "unit": "mg/100 g"}, {"measurement": "Yield: Total yield", "setting": "[11]", "result": 3626, "unit": "kg/mu"}, {"measurement": "Yield: Weight of single fruit", "setting": "[11]", "result": 22.6, "unit": "g"}, {"measurement": "Disease (rot): Control effect", "setting": "[12]; 12 days after application", "result": 62.42, "unit": "%"}, {"measurement": "Disease (rot): Disease index", "setting": "[12]; 12 days after application", "result": 5.95}, {"measurement": "Disease (rot): Control effect", "setting": "[12]; 45 days after application", "result": 34.52, "unit": "%"}, {"measurement": "Disease (rot): Disease index", "setting": "[12]; 45 days after application", "result": 16.16}]}
